Experimental data taken from article PMC2568900 (Biochemistry, 2008).
“Also recorded” adds a separate entry of the source.

Tests used:
[1] = molecular target: T1, wild-type PDHK2 (Rattus norvegicus, UniProt Q64536); settings: control, wide range of concentrations
[2] = molecular target: PDHK2-wt (Rattus norvegicus, UniProt Q64536); test: ATP, ADP and DCA binding by quenching of intrinsic tryptophan fluorescence
[3] = molecular target: T2, PDHK2-Y320F (Rattus norvegicus, UniProt Q64536, Y328F); test: as above; settings: for Qmax: quenching caused by the varied ligand
[4] = test system: PDHK2-Y320F bound to L2; test: GST-L2 pull-down; type: binding, rat; settings: for effect on amount of kinase bound to L2: nucleotide 0.5 mM
[5] = molecular target: L2 binding to PDHK2-N247Q (Rattus norvegicus, UniProt Q64536, N255Q); test: GST-L2 pull-down; settings: PDHK2-N247Q (cannot bind nucleotides); nucleotides 10 mM each
[6] = molecular target: PDHK2-R250A (Rattus norvegicus, UniProt Q64536, R258A); test: ATP, ADP and DCA binding by quenching of intrinsic tryptophan fluorescence
[7] = molecular target: T3, PDHK2-T302A (Rattus norvegicus, UniProt Q64536, T310A); test: as above
[8] = molecular target: T3, PDHK2-T302A; test: Isothermal titration calorimetry of L2 binding; settings: ITC, 10 mM ATP
[9] = molecular target: T2, PDHK2-Y320F; test: Kinase activity assay; type: biochemical; settings: standard phosphorylation assay
[10] = molecular target: T1, wild-type PDHK2; test: biochemical
[11] = PDHK2-wt, fixed ligand DCA (0.5 mM)
[12] = PDHK2-wt, no fixed ligand, 25 °C

Structure (SMILES): CC(=O)[O-].[Na+] [sodium acetate]
- effect on kinase activity [1]: slight decrease in PDHK2 activity

Structure (SMILES): Nc1ncnc2c1ncn2[C@@H]1O[C@H](COP(=O)(O)OP(=O)(O)O)[C@@H](O)[C@H]1O [ADP]
- Kd [2, 11]: 2 ± 0.1 µM
- nH [2, 11]: 2.2 ± 0.1
- Qmax ([2]; PDHK2-wt, fixed ligand DCA (0.5 mM), quenching caused by the varied ligand): 39 ± 1%
- Qmax (extrapolated maximal quenching) ([2]; PDHK2-wt, no fixed ligand): 31 ± 1%
- nH (Hill coefficient) ([2]; PDHK2-wt, no fixed ligand): 1.5 ± 0.2
- Kd [2, 12]: 10.6 ± 0.5 µM
- increase in affinity for ADP in the presence of DCA ([2]; wild-type PDHK2, 0.5 mM DCA): approximately 5 times
- increase in affinity for ADP by DCA (factor) ([3]; 0.5 mM DCA): 3.5
- Kd ([3]; fixed ligand DCA (0.5 mM)): 2.5 ± 0.2 µM
- nH ([3]; fixed ligand DCA (0.5 mM)): 1.9 ± 0.1
- Qmax ([3]; fixed ligand DCA (0.5 mM)): 37 ± 1%
- Qmax (extrapolated maximal quenching) ([3]; no fixed ligand): 24 ± 1%
- nH (Hill coefficient) ([3]; no fixed ligand): 1.4 ± 0.1
- Kd ([3]; no fixed ligand, 25 °C): 8.9 ± 0.1 µM
- effect on amount of kinase bound to L2 [4]: significant decrease
- effect on L2 binding [5]: did not exert any nonspecific effects

Structure (SMILES): Nc1ncnc2c1ncn2[C@@H]1O[C@H](COP(=O)(O)OP(=O)(O)OP(=O)(O)O)[C@@H](O)[C@H]1O [ATP]
- Qmax (extrapolated maximal quenching) ([2]; PDHK2-wt, no fixed ligand): 37 ± 1%
- nH (Hill coefficient) ([2]; PDHK2-wt, no fixed ligand): 1.9 ± 0.1
- Kd [2, 12]: 2.5 ± 0.4 µM
- decrease in affinity relative to wild-type PDHK2 [6]: > 30 fold
- Qmax (extrapolated maximal quenching) ([6]; no fixed ligand): 29 ± 1%
- nH (Hill coefficient) ([6]; no fixed ligand): 1.0 ± 0.1
- Kd ([6]; no fixed ligand, 25 °C): 80 ± 1 µM
- decrease in affinity relative to wild-type PDHK2 [7]: more than 20 fold
- Qmax (extrapolated maximal quenching) ([7]; no fixed ligand): 23 ± 1%
- nH (Hill coefficient) ([7]; no fixed ligand): 1.5 ± 0.1
- Kd ([7]; no fixed ligand, 25 °C): 60 ± 1 µM
- Qmax (extrapolated maximal quenching) ([3]; no fixed ligand): 32 ± 1%
- nH (Hill coefficient) ([3]; no fixed ligand): 2.4 ± 0.1
- Kd ([3]; no fixed ligand, 25 °C): 1.7 ± 0.1 µM
- effect on L2 binding [8]: little, if any, effect
- effect on amount of kinase bound to L2 [4]: significant decrease
- effect on L2 binding [5]: did not exert any nonspecific effects

Structure (SMILES): O=C(O)C(Cl)Cl [DCA, dichloroacetate]
- Kd ([2]; Kd, PDHK2-wt, no fixed ligand, 25 °C): 226 ± 7 µM
- Kd ([6]; Kd, fixed ligand ADP (50 μM)): 161 ± 4 µM
- Kd ([6]; Kd, fixed ligand ADP (500 μM)): 59 ± 1 µM
- Kd ([6]; Kd, no fixed ligand, 25 °C): 312 ± 25 µM
- Kd ([7]; Kd, fixed ligand ADP (50 μM)): 249 ± 9 µM
- Kd ([7]; Kd, fixed ligand ADP (500 μM)): 103 ± 1 µM
- Kd ([7]; Kd, no fixed ligand, 25 °C): 320 ± 20 µM
- Kd ([3]; Kd, fixed ligand ADP (50 μM)): 33 ± 1 µM
- Kd ([3]; Kd, no fixed ligand, 25 °C): 292 ± 10 µM
- Qmax ([3]; fixed ligand ADP (50 μM)): 29 ± 1%
- effect on kinase activity [9]: neither of the mutant kinases displayed an effect of DCA that would significantly exceed that of sodium acetate; also recorded: did not display an appreciable inhibitory effect; also recorded: no appreciable effect
- effect on L2 binding, added alone ([4]; DCA 1 mM alone): little, if any, influence
- effect on L2 binding, in combination with ATP or ADP ([4]; DCA 1 mM with 0.5 mM ATP or ADP): potentiated the effects of adenine nucleotides
- IC50 [10]: ~690 µM
